± gives the standard deviation of the averaged measurements.
These test systems were tested with T1, Cc1ccc(-c2cc(C(F)(F)F)nn2-c2ccc(S(N)(=O)=O)cc2)cc1 [CELECOXIB] (assay: area under dose-response curve of surviving fraction (unscaled, Aref=0) (surviving fraction x log10(nM)); higher = more resistant). Conditions: exposure time: 5 days; dose range 0.5-1000 nM.
Method in brief: (§1)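 Inhibitor was applied to tumour cell lines at eight concentrations (0.5 to 1000 nM) for five days in 384-well plates. Luminescence from CellTiter-Glo, scaled to DMSO-only wells, gave surviving fractions in three screens per line, and these were fitted by 3-parameter logistic regression with the drc R package. The area under the curve is an unscaled activity area. Aref was 0, and dose was on a log10 scale.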
For SCC36 HEADNECK, the “area under dose-response curve” value was 3.53. For JIMT1 BREAST, the “area under dose-response curve” value was 3.51. CAL72 BONE was tested, and the “area under dose-response curve” value was 3.49. G292 BONE was tested, and the “area under dose-response curve” value was 3.34.

Each test system was assayed with T2, O=C(O)C1(C(=O)O)CCC1.[NH2-].[NH2-].[Pt+2] [CARBOPLATIN] in the same assay as above. Conditions: exposure time: 5 days; dose range 0.5-1000 nM.
Method in brief: as §1
In the case of SCC36 HEADNECK, the “area under dose-response curve” value is reported as 3.45. In the case of JIMT1 BREAST, the “area under dose-response curve” value is reported as 3.31. CAL72 BONE was tested, and the “area under dose-response curve” value was 3.49. In the case of G292 BONE, the “area under dose-response curve” value is reported as 3.42.

The test systems below were run with CC(=O)NCC(=O)N1[C@@H]2CC[C@H]1c1ccc(Nc3ncc(C(F)(F)F)c(NC4CCC4)n3)cc12 in the same assay as above. Conditions: exposure time: 5 days; dose range 0.5-1000 nM.
Method in brief: as §1
For SCC36 HEADNECK, the “area under dose-response curve” value was 2.74. JIMT1 BREAST was tested, and the “area under dose-response curve” value was 2.96. In the case of CAL72 BONE, the “area under dose-response curve” value is reported as 2.9. With G292 BONE the “area under dose-response curve” value was 2.24.

These test systems were tested with C[C@]1(O)C[C@@H](c2nc(-c3ccc4ccc(-c5ccccc5)nc4c3)c3c(N)nccn32)C1 [OSI-906] in the same assay as above. Conditions: exposure time: 5 days; dose range 0.5-1000 nM.
Method in brief: as §1
SCC36 HEADNECK was tested, and the “area under dose-response curve” value was 2.48. JIMT1 BREAST was tested, and the “area under dose-response curve” value was 3.15. For CAL72 BONE, the “area under dose-response curve” value was 3.22. In the case of G292 BONE, the “area under dose-response curve” value is reported as 2.59.

What follows are test systems tested with COc1cc2ncnc(Nc3ccc(F)c(Cl)c3)c2cc1OCCCN1CCOCC1 [GEFITINIB] in the same assay as above. Conditions: exposure time: 5 days; dose range 0.5-1000 nM.
Method in brief: as §1
For SCC36 HEADNECK, the “area under dose-response curve” value was 2.61. In the case of JIMT1 BREAST, the “area under dose-response curve” value is reported as 3.29. With CAL72 BONE the “area under dose-response curve” value was 3.5. With G292 BONE the “area under dose-response curve” value was 3.36.

These test systems were tested with CC(=O)c1c(C)c2cnc(Nc3ccc(N4CCNCC4)cn3)nc2n(C2CCCC2)c1=O in the same assay as above. Conditions: exposure time: 5 days; dose range 0.5-1000 nM.
Method in brief: as §1
In the case of SCC36 HEADNECK, the “area under dose-response curve” value is reported as 3.5. In the case of JIMT1 BREAST, the “area under dose-response curve” value is reported as 3.35. For CAL72 BONE, the “area under dose-response curve” value was 3.69. With G292 BONE the “area under dose-response curve” value was 3.05.

Each test system was assayed with COCC[n+]1c2c(n(Cc3cnccn3)c1C)C(=O)c1ccccc1C2=O [YM155] in the same assay as above. Conditions: exposure time: 5 days; dose range 0.5-1000 nM.
Method in brief: as §1
SCC36 HEADNECK was tested, and the “area under dose-response curve” value was 1.77. With JIMT1 BREAST the “area under dose-response curve” value was 1.39. With CAL72 BONE the “area under dose-response curve” value was 1.02. G292 BONE was tested, and the “area under dose-response curve” value was 1.47.

The test systems below were run with CC[C@@]1(O)C(=O)OCc2c1cc1n(c2=O)Cc2cc3ccccc3nc2-1 [CAMPTOTHECIN] in the same assay as above. Conditions: exposure time: 5 days; dose range 0.5-1000 nM.
Method in brief: as §1
In the case of SCC36 HEADNECK, the “area under dose-response curve” value is reported as 1.36. With JIMT1 BREAST the “area under dose-response curve” value was 1.8. CAL72 BONE was tested, and the “area under dose-response curve” value was 1.67. With G292 BONE the “area under dose-response curve” value was 1.35.

Each test system was assayed with CC(=O)O[C@H]1C(=O)[C@@]2(C)[C@H]([C@H](OC(=O)c3ccccc3)[C@]3(O)C[C@H](OC(=O)[C@H](O)[C@@H](NC(=O)c4ccccc4)c4ccccc4)C(C)=C1C3(C)C)[C@]1(OC(C)=O)CO[C@@H]1C[C@@H]2O [PACLITAXEL] in the same assay as above. Conditions: exposure time: 5 days; dose range 0.5-1000 nM.
Method in brief: as §1
SCC36 HEADNECK was tested, and the “area under dose-response curve” value was 0.905. For JIMT1 BREAST, the “area under dose-response curve” value was 0.48. For CAL72 BONE, the “area under dose-response curve” value was 0.96. With G292 BONE the “area under dose-response curve” value was 0.722.

What follows are test systems tested with T1, CELECOXIB (assay: surviving fraction relative to DMSO-only wells; higher = less growth inhibition). Conditions: 0.5 nM; exposure time: 5 days.
Method in brief: (§2)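 Five days of continuous inhibitor exposure, at 0.5, 1, 5, 10, 50, 100, 500 and 1000 nM, followed a 24-hour period after log-phase tumour cell lines were seeded at 250–500 cells per well in 384-well plates. Surviving fraction was derived from CellTiter-Glo luminescence relative to the median of DMSO-only wells. Plates were read after 10 minutes at room temperature, and lines screened three times were kept only if replicate Pearson r >0.7 and median Z' >0.3.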
For SCC36 HEADNECK, the surviving fraction was 1.05 ± 0.029. JIMT1 BREAST was tested, and the surviving fraction was 1.04 ± 0.039. With CAL72 BONE the surviving fraction was 1.03 ± 0.1. G292 BONE showed a surviving fraction of 1.03 ± 0.028.

Same assay, conditions: 1 nM; exposure time: 5 days
Test System SCC36 HEADNECK has a surviving fraction of 0.924 ± 0.11. JIMT1 BREAST was tested, and the surviving fraction was 1.04 ± 0.023. Test System CAL72 BONE has a surviving fraction of 1.04 ± 0.14. G292 BONE showed a surviving fraction of 1.02 ± 0.05.

Same assay, conditions: 5 nM; exposure time: 5 days
With SCC36 HEADNECK the surviving fraction was 1.13 ± 0.057. Test System JIMT1 BREAST has a surviving fraction of 1.06 ± 0.039. For CAL72 BONE, the surviving fraction was 1.05 ± 0.11. In the case of G292 BONE, the surviving fraction is reported as 1.03 ± 0.039.

Same assay, conditions: 10 nM; exposure time: 5 days
Work on SCC36 HEADNECK yielded a surviving fraction of 1.09 ± 0.025. For JIMT1 BREAST, the surviving fraction was 1.08 ± 0.051. CAL72 BONE showed a surviving fraction of 1.04 ± 0.046. G292 BONE was tested, and the surviving fraction was 1 ± 0.057.

Same assay, conditions: 50 nM; exposure time: 5 days
In the case of SCC36 HEADNECK, the surviving fraction is reported as 1.16 ± 0.12. With JIMT1 BREAST the surviving fraction was 1.04 ± 0.021. In the case of CAL72 BONE, the surviving fraction is reported as 1.06 ± 0.12. Work on G292 BONE yielded a surviving fraction of 1.04 ± 0.02.

Same assay, conditions: 100 nM; exposure time: 5 days
Work on SCC36 HEADNECK yielded a surviving fraction of 1.08 ± 0.044. In the case of JIMT1 BREAST, the surviving fraction is reported as 1.08 ± 0.015. With CAL72 BONE the surviving fraction was 1.08 ± 0.17. G292 BONE was tested, and the surviving fraction was 1.02 ± 0.047.

Same assay, conditions: 500 nM; exposure time: 5 days
In the case of SCC36 HEADNECK, the surviving fraction is reported as 1.13 ± 0.079. In the case of JIMT1 BREAST, the surviving fraction is reported as 1.08 ± 0.062. In the case of CAL72 BONE, the surviving fraction is reported as 1.07 ± 0.13. Work on G292 BONE yielded a surviving fraction of 0.996 ± 0.045.

Same assay, conditions: 1000 nM; exposure time: 5 days
SCC36 HEADNECK was tested, and the surviving fraction was 1.04 ± 0.14. In the case of JIMT1 BREAST, the surviving fraction is reported as 1.07 ± 0.024. In the case of CAL72 BONE, the surviving fraction is reported as 1.09 ± 0.12. Work on G292 BONE yielded a surviving fraction of 0.964 ± 0.076.

What follows are test systems tested with T2, CARBOPLATIN in the same assay as above. Conditions: 0.5 nM; exposure time: 5 days.
Method in brief: as §2
SCC36 HEADNECK showed a surviving fraction of 1.07 ± 0.03. For JIMT1 BREAST, the surviving fraction was 0.97 ± 0.037. CAL72 BONE was tested, and the surviving fraction was 1.05 ± 0.081. Test System G292 BONE has a surviving fraction of 1.01 ± 0.039.

Same assay, conditions: 1 nM; exposure time: 5 days
SCC36 HEADNECK gave a surviving fraction of 0.992 ± 0.15. With JIMT1 BREAST the surviving fraction was 0.949 ± 0.027. Test System CAL72 BONE has a surviving fraction of 1.03 ± 0.094. G292 BONE showed a surviving fraction of 1 ± 0.026.

Same assay, conditions: 5 nM; exposure time: 5 days
SCC36 HEADNECK showed a surviving fraction of 1.09 ± 0.096. Work on JIMT1 BREAST yielded a surviving fraction of 0.999 ± 0.014. CAL72 BONE gave a surviving fraction of 1.06 ± 0.035. G292 BONE gave a surviving fraction of 1.07 ± 0.044.

Same assay, conditions: 10 nM; exposure time: 5 days
Work on SCC36 HEADNECK yielded a surviving fraction of 1.07 ± 0.097.

Source: the supplement of paper PMC6045584
